The values that follow come from patent US8653023B1, “Dual beneficial effect of dopamine enhancing and neuroprotective actions of PKC delta inhibitors for treatment of Parkinson's disease” (Iowa State University Research Foundation, Inc., priority 2006, dated 2014).

Series [1] relates to primary mesencephalic dopaminergic neuronal cells. The format is cell-based, mice. Conditions: 10 μM MPP+ for 48 hrs. On the procedure: Primary mesencephalic neuronal cultures were prepared from the ventral mesencephalon of gestational 16-18-day-old mice embryos as described previously (Yang et al., 2004). Mesencephalic tissues were dissected and maintained in ice-cold Ca^2+-free HESS and then dissociated in HESS solution containing trypsin-EDTA (0.25%) for 20 min at 37° C. The dissociated cells were then plated at equal density (0.5×10^6 cells) in 30-mm-diameter tissue culture wells precoated with poly-D-lysine (1 mg/ml). Cultures were maintained in a chemically defined medium consisting of neurobasal medium fortified with B-27 supplements, L-glutamine (500 μM), penicillin (100 IU/ml), and streptomycin (100 μg/ml) (Life Technologies). The cells were maintained in a humidified CO2 incubator (5% CO2, 37° C.) for 24 hr and then treated with cytosine arabinoside (10 μM) for 24 hr to inhibit glial cell proliferation. Half of the culture medium was replaced every 2 days. Approximately 6-7-day-old cultures were used for experiments. […]
After treatment, the primary mesencephalic neurons were fixed with 4% paraformaldehyde and processed for immunocytotochemical staining. […] Then the coverslips containing stained cells were washed with PBS, mounted on a slide, and viewed under a Nikon inverted fluorescence microscope (Model TE-2000U); images were captured with a SPOT digital camera (Diagnostic Instruments, Sterling Heights, Mich.).
We used Metamorph software (Universal Imaging, Version 5.0) for measurement of TH^+ cells and neuronal processes in primary neurons from each coverslip. For measurement of TH cell count, the images were first thresholded, and then neuronal count and volume were measured using the Integrated Morphometry Analysis (IMA) function. The data were logged to an Excel spreadsheet with defined row and column positions and then analyzed. […] The data were exported to an Excel spreadsheet and analyzed. TH^+ neurons and their processes were counted in at least six individual cultures for each treatment. This method is a modified version of methodology recently used for quantification of neuronal processes.

In series [2] the test system is MPTP-treated C57 black mice. The experiment in a line: TH+ neuron count in substantia nigra pars compacta of MPTP mice (stereology). The class given is in vivo. The following applies: MPTP 30 mg/kg for 5 continuous days. On the procedure:
(§1) Six to 8-week-old […] mice weighing 30 g were housed in standard conditions: constant temperature (22±1° C.), humidity (relative, 30%) and a 12-h light/dark cycle, and were allowed free access to food and water. The animals and protocol procedures were approved and supervised by the Committee on Animal Care (COAC) at the Iowa State University. Rottlerin was dissolved in 1% dimethyl sulfoxide (DMSO) and was administered intraperitoneally at various doses. An equal volume of DMSO was given to controls. Rottlerin and DMSO administrations were started 24 h before the injections of the MPTP and continued for 5 days in the MPTP model. In the chronic regimens of MPTP administration, MPTP in phosphate-buffered saline (PBS) was injected intraperitoneally at doses of 30 mg/kg, once a day. Mice were sacrificed 2 days after the MPTP injections, and the striata were dissected for catecholamine analysis. Additionally, rottlerin alone (0.3-20 mg/kg) was administered via intraperitoneally or orally and then brain tissues were subjected to neurochemical analyses (FIG. 8). The mesencephalons were fixed in 4% paraformaldehyde for 5 days for tyrosine hydroxylase (TH) immunostaining.
Brains removed following cervical dislocation were post-fixed in paraformaldehyde and used for TH immunolabelling and stereological studies. Fixed brains were cut into 30-μm sections and collected in cryoprotectant. Sections were rinsed in PBS at room temperature before immunostaining, then incubated with a anti-TH antibody as described (Thiruchelvam, McCormack et al. 2003; Thiruchelvam, Powers et al. 2004). The total number of TH^+ and TH Nissl-stained neurons in the SNpc were counted using the optical fractionator and previously described counting criteria (Thiruchelvam, McCormack et al. 2003; Thiruchelvam, Powers et al. 2004). After delineation of the region at low magnification (4× objective), every fourth section from the entire substantia nigra was sampled at higher magnification (100× objective) using StereoImager (Microbrightfield, Vt.).

The subject of series [3] is MPTP-treated C57 black mice. The series can be described thus: MPTP-induced striatal dopamine depletion (HPLC-EC). The format is in vivo. Conditions: MPTP 30 mg/kg for 5 days alone. On the procedure: as §1
DA and DOPAC levels in brain striatal tissues were determined by high-performance liquid chromatography with electrochemical detection (HPLC-EC); samples were prepared as described previously (Kitazawa, Anantharam et al. 2001). Briefly, neurotransmitters were extracted from samples using 0.1M perchloric acid containing 0.05% Na2EDTA and 0.1% Na2S2O5. The extracts were filtered in 0.22 micron spin tubes and 20 μl of the samples was loaded for analysis. DA and DOPAC were separated isocratically by a reversed-phase column with a flow rate of 0.7 ml/min. An HPLC system (ESA Inc., Bedford, Mass.) with an ESA automatic sampler (model 542) was used for these experiments. The electrochemical detection (EC) system consisted of an ESA coulochem model 5100A with a microanalysis cell model 5014A and a guard cell model 5020 (ESA Inc., Bedford, Mass.). The DA and DOPAC levels were measured as pg/mg protein and expressed as percent of control.

The test system of series [4] is MPTP-treated C57 black mice. The series can be described thus: Locomotor activity of MPTP-treated mice (VersaMax). The class given is in vivo. The following applies: MPTP treatment alone, 1 day after treatment, 20-min session. An excerpt: Behavioral data were collected using VersaMax Animal Activity Monitors (AccuScan Model RXYZCM-16, Columbus, Ohio). Each chamber was 40×40×30.5 cm^3, made of clear Plexiglas and covered with a Plexiglas lid with air-holes. Infrared monitoring sensors were located every 2.54 cm along the perimeter (16 infrared beams along each side) and 2.5 cm above the floor. Two additional sets of 16 sensors were located 8.0 cm above the floor on opposite sides. Data were collected and analyzed by a VersaMax Analyzer (AccuScan Model CDA-8, Columbus, Ohio) which in turn sent information to an IBM computer where it was stored for future analyses. Locomotor activity was presented as horizontal movement and vertical movement. All data are expressed as percent of the vehicle-treated control group (mean 6 SEM) and were obtained 1 day after MPTP or vehicle treatment in a 20-min test session.

Series [5] deals with dopaminergic N27 cells. Conditions: cited from earlier work.
For series [6], the system named is tyrosine hydroxylase (TH). The experiment in a line: TH phosphorylation in N27 cells (Western blot, immunofluorescence). The class given is cell-based, rat. As for the experimental part: (§2) PC12 cells, differentiated N27 dopaminergic cells and primary mesencephalic neurons were exposed to 1-10 μM rottlerin for the duration of the experiment. DMSO (0.01%) was used as vehicle control. PKCδ-DN- and Lac Z-expressing N27 cells were only treated with 0.01% DMSO. […] Untreated or vehicle treated cells were used as control samples.
(§3) Cell and brain lysates containing equal amounts of protein were loaded in each lane and separated on a 10-12% SDS-PAGE gel as described previously (Kaul et al., 2003). After the separation, proteins were transferred to nitrocellulose membrane, and nonspecific binding sites were blocked by treating with 5% nonfat dry milk powder. The membranes were then treated with primary antibodies directed against PKCδ (rabbit polyclonal or mouse monoclonal, 1:2000 dilution), TH (rabbit polyclonal or mouse monoclonal, 1:1000), phospho TH-ser40 (rabbit polyclonal, 1:1000), phospho TH-ser31 TH (rabbit polyclonal, 1:1000), or PP2A (mouse monoclonal, 1:1000). The primary antibody treatments were followed by treatment with secondary HRP-conjugated anti-rabbit or anti-mouse IgG (1:2000) for 1 hr at RT. Secondary antibody-bound proteins were detected using Amersham's ECL chemiluminescence kit. To confirm equal protein loading, blots were reprobed with a β-actin antibody (1:5000 dilution). Western blot images were captured with a Kodak 2000 MM imaging system and data were analyzed using 1D Kodak imaging analysis software.
Immunostaining of PKCδ, TH, Ser40 P-TH and Ser31 P-TH was performed in PC12, N27 and primary mesencephalic neurons. Cells were grown on poly-L-Lysine-coated glass cover slips. After treatment, the cells were fixed with 4% paraformaldehyde and processed for immunohistochemical staining. First, non-specific sites were blocked with 5% normal goat serum containing 0.4% BSA and 0.2% Triton-X 100 in PBS for 20 min. Cells were then incubated with antibodies directed against PKCδ (1:500 dilution), TH (1:500 dilution), and P-THSer40 (1:500 dilution) overnight at 4° C. followed by incubation with either Alexa 488-conjugated (green, 1:1000) or Cy3-conjugated (red, 1:1000) secondary antibody for 1 hr at RT. Secondary antibody treatments were followed by incubation with Hoechst 33342 (10 μg/ml) for 3 min at room temperature to stain the nucleus. Then the coverslips containing stained cells were washed with PBS, mounted on a slide, and viewed under a Nikon inverted fluorescence microscope (Model TE-2000U); images were captured with a SPOT digital camera (Diagnostic Instruments, Sterling Heights, Mich.).
A general note: In western blotting, separated proteins are transferred to a membrane and probed.

The subject of series [7] is tyrosine hydroxylase (TH). The series can be described thus: TH activity (DOPA levels after NSD-1015) in N27 cells. The class given is cell-based, rat. The following applies: okadaic acid 2 μM for 2 hr. On the procedure:
Plasmid pPKCδ^K376R-V5 encodes the loss of function PKCδ-V5 epitope tagged mutant protein; K376R refers to the mutation of the lysine residue at position 376 to arginine in the catalytic site resulting in inactivation of the kinase. Plasmid pLacZ-V5 encodes the β-galactosidase protein alone with a V5-epitope and is used as a vector control. N27 cells stably expressing PKCδ^K376R-V5 (herein referred to as PKCδ-DN cells) and LacZ alone-expressing cells (LacZ cells) were cultured as described previously (Kitazawa et al., 2005). PKCδ-DN or LacZ expressing N27 cells were identified by immunostaining of the C-terminal V5 epitope on expressed proteins and were differentiated with cAMP analogs (e.g. dibutyral cAMP) prior to experiments. PKCδ-DN and LacZ were also transiently expressed in mouse primary mesencephalic neurons using an AMAXA® Nucleofector™ kit (AMAXA GmbH, Germany). As described above, primary mesencephalic neurons were prepared from the midbrain of 16-18-day-old mice embryos. After digestion with trypsin-EDTA-HBSS, the primary neurons were homogenously resuspended with transfection buffer provided with the kit to a final concentration of 4-5×10^6 neurons/100 μl and mixed with 1 μg plasmid DNA encoding either PKCδ-DN-V5 or LacZ-V5. […] Transfection efficiency was >75% as determined by immunostaining of V5-expression. […]

Series [8] has as its system PKCδ. The experiment in a line: PKCδ expression in siRNA-transfected N27 cells (Western blot). The class given is cell-based, rat. Conditions: vs siRNA-NS. On the procedure: Small interfering RNAs (siRNAs) were prepared by an in vitro transcription method as described previously (Yang et al., 2004). Cy-3 labeling of siRNA and transfections were carried out as described in a recent publication (Yang et al., 2004). We used the siRNA PKCδ-4 and non-specific siRNA (siRNA-NS) for this study.
as §3, with “To confirm equal protein loading, blots were reprobed with a β-actin antibody (1:5000 dilution).” left out

Series [9] has as its system N27 cells. The series can be described thus: Cellular DA and DOPAC levels in N27 cells (HPLC-EC). The format is cell-based, rat. Conditions: siRNA-transfected N27 cells. As for the experimental part: as §2
DA and DOPAC levels in PC12, N27 cells and in brain striatal tissues were determined by high-performance liquid chromatography with electrochemical detection (HPLC-EC); samples were prepared as described previously (Kitazawa et al., 2001). The DA and DOPAC levels were measured as pg/mg protein and expressed as percent of control.

The mark [10] stands for this setting: N27 cells, okadaic acid 2 μM for 2 hr.

Consider `C[n+]1ccc(-c2ccccc2)cc1` [MPP^+, 1-methyl-4-phenylpyridinium], for which the “cell death and loss of neurites length of TH+ neurons” value in [1] is 90%.

With `CN1CC=C(c2ccccc2)CC1` [MPTP, 1-methyl-4-phenyl-1,2,3,6-tetrahydropyridine], the “cell loss in SNpc as compared to controls” value in [2] is listed as 40%. In addition, in series [3], the “dopamine level in striatum” value turned out to be 14.49±3.77 pg DA/mg tissue weight and the “reduction of striatal dopamine versus vehicle” value is −94%. The “locomotor activity compared to control group” value in series [4] was 55.17%.

Turning to `O=c1c(-c2ccc(O)cc2)coc2cc(O)cc(O)c12` [genistein], the “H2O2 and MPP+-induced apoptotic cell death (genistein: also PKCδ cleavage, kinase activation)” value in series [5] is recorded as “dramatically inhibited”.

As to `C=C1[C@@H](O)[C@@H]2O[C@]3(CC[C@H](/C=C/[C@@H](C)[C@@H]4CC(C)=C[C@@]5(O[C@H](C[C@@](C)(O)C(=O)O)CC[C@H]5O)O4)O3)CC[C@H]2O[C@@H]1[C@@H](O)C[C@H](C)[C@H]1O[C@@]2(CCCCO2)CC[C@H]1C` [okadaic acid], in series [6] (setting [10]), the “baseline THser40 phosphorylation levels versus untreated cells” value was “increase” and the “levels of total TH versus untreated cells” value is “similar”. For the same compound, the “DOPA levels (TH activity)” value in series [7] is 1434±212.6 pg/10^6 cells/hr.

In the case of “PKCδ siRNA: siRNA PKCδ-4 directed against PKCδ; probably siRNA-d-4, SEQ ID NO:7 and 8 (chain 1 AACTGTTTGTGAATTTGCCTTCCTGTCTC; chain 2 AAAAGGCAAATTCACAAACAGCCTGTCTC; listed as DNA, chemistry not given here)”, in series [6] (siRNA-transfected N27 cells), the “TH-Ser40 (60 kDa band) densitometry, increase versus siRNA-NS” value turned out to be 2 fold and the “total TH levels versus siRNA-NS” value is “similar”. The “reduction in PKCδ expression” value in series [8] is on record as 55%. Moreover, in series [9], the “increase in DOPAC versus siRNA-NS” value was found to be 71% and the “increase in the DA level versus siRNA-NS” value amounted to 45%.
